Here are results for 27 compounds from US11078170B2 (Assembly Biosciences, Inc., priority 2017, dated 2021).

Molecules are shown by their SMILES.

The assay relates to HBV viral production from HepAD38 cells. Nature of the assay: Activity of test compounds on viral production from HepAD38 cells (viral load by qPCR of HBV core sequence in supernatant). It counts as cell-based. Conditions: Hepatitis B virus, 120 h, 5 days incubation, HBV DNA in supernatant by qPCR, top concentration 10 μM, read-out: Viral Load EC50 Activity range. In outline: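 HepAD38 cells, 50,000/well in tetracycline-free 2% FBS medium, treated 5 days at 37° C. with compound from 10 μM top concentration. HBV DNA in supernatant quantified by TaqMan qPCR of core sequence against DNA standards, relative to DMSO wells; CellTiter-Glo viability read in parallel. EC50/CC50 from four-parameter logistic fit.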
A word on the EC50: it is the concentration that produces a half-maximal response. For `[2H]C1[C@]([2H])(C(=O)Nc2ccc(F)c(Cl)c2)N(C)S(=O)(=O)N[C@]1([2H])c1ccc(-c2cn(C([2H])([2H])[2H])cn2)s1` (stereo in doubt) [HBV-CSU-376-ISO-II, Cis-N-(3-Chloro-4-fluorophenyl)-2-methyl-5-(5-(1-(methyl-d3)-1H-imidazol-4-yl)thiophen-2-yl)-1,2,6-thiadiazinane-3,4,5-d3-3-carboxamide 1,1-dioxide], the EC50 lay within 1000 to 5000 nM.
With `CN1[C@H](C(=O)Nc2ccc(F)c(Cl)c2)C[C@H](C2CCCC2)NS1(=O)=O` [HBV-CSU-222-ISO-I, Cis-N-(3-chloro-4-fluorophenyl)-5-cyclopentyl-2-methyl-1,2,6-thiadiazinane-3-carboxamide 1,1-dioxide] the figure was less than 1000 nM.
Next, `CN1C(C(=O)Nc2ccc(F)c(Cl)c2)CC(c2ccc(C#N)cc2)NS1(=O)=O` (racemic) [HBV-CSU-213, Cis-N-(3-chloro-4-fluorophenyl)-5-(4-cyanophenyl)-2-methyl-1,2,6-thiadiazinane-3-carboxamide 1,1-dioxide]: less than 1000 nM; `Cc1csc(C2CC(C(=O)Nc3ccc(F)c(Cl)c3)N(C)S(=O)(=O)N2)c1` (racemic) [HBV-CSU-147, Cis-N-(3-chloro-4-fluorophenyl)-2-methyl-5-(4-methylthiophen-2-yl)-1,2,6-thiadiazinane-3-carboxamide 1,1-dioxide]: less than 1000 nM; `CN1[C@@H](C(=O)Nc2ccc(F)c(Cl)c2)C[C@@H](c2ccc(Cc3ccccc3)s2)NS1(=O)=O` [HBV-CSU-117-ISO-II, Cis-(5-benzylthiophen-2-yl)-N-(3-chloro-4-fluorophenyl)-2-methyl-1,2,6-thiadiazinane-3-carboxamide 1,1-dioxide]: 1000 to 5000 nM.
With `CN1C(C(=O)Nc2ccc(F)c(Cl)c2)CC(c2cc(-c3ccc(C(F)(F)F)nc3)cs2)NS1(=O)=O` (racemic) [HBV-CSU-166, Cis-N-(3-chloro-4-fluorophenyl)-2-methyl-5-(4-(6-(trifluoromethyl)pyridin-3-yl)thiophen-2-yl)-1,2,6-thiadiazinane-3-carboxamide 1,1-dioxide] the figure was less than 1000 nM; with `CCOCCN1[C@H](C(=O)Nc2ccc(F)c(Cl)c2)C[C@H](c2nccs2)NS1(=O)=O` (relative stereo) [HBV-CSU-142-ISO-II, Cis-N-(3-Chloro-4-fluorophenyl)-2-(2-ethoxyethyl)-5-(thiazol-2-yl)-1,2,6-thiadiazinane-3-carboxamide 1,1-dioxide], less than 1000 nM; with `CN1[C@@H](C(=O)Nc2ccc(F)c(Cl)c2)C[C@@H](c2cc(-c3cncnc3)cs2)NS1(=O)=O` [HBV-CSU-290-ISO-II, Cis-N-(3-chloro-4-fluorophenyl)-2-methyl-5-(4-(pyrimidin-5-yl)thiophen-2-yl)-1,2,6-thiadiazinane-3-carboxamide 1,1-dioxide], 1000 to 5000 nM.
As for `CN1[C@@H](C(=O)Nc2ccc(F)c(Cl)c2)C[C@@H](c2cc(-c3cnn(C)c3)cs2)NS1(=O)=O` [HBV-CSU-169-ISO-II, Cis-N-(3-chloro-4-fluorophenyl)-2-methyl-5-(4-(1-methyl-1H-pyrazol-4-yl)thiophen-2-yl)-1,2,6-thiadiazinane-3-carboxamide 1,1-dioxide], the EC50 lay within 1000 to 5000 nM.
On to `CN1C(C(=O)Nc2ccc(F)c(Cl)c2)CC(c2ccc(-c3ccccn3)s2)NS1(=O)=O` (racemic) [HBV-CSU-160, Cis-N-(3-chloro-4-fluorophenyl)-2-methyl-5-(5-(pyridin-2-yl)thiophen-2-yl)-1,2,6-thiadiazinane-3-carboxamide 1,1-dioxide], for which the EC50 is less than 1000 nM.
With `COc1ccc(CN2C(C(=O)Nc3ccc(F)c(Cl)c3)CC(c3nccs3)NS2(=O)=O)cc1` (stereo not drawn) [HBV-CSU-108, Cis-N-(3-chloro-4-fluorophenyl)-2-(4-methoxybenzyl)-5-(thiazol-2-yl)-1,2,6-thiadiazinane-3-carboxamide 1,1-dioxide] the figure was more than 5000 nM; with `[2H]C([2H])([2H])N1[C@@H](C(=O)Nc2ccc(F)c(Cl)c2)C[C@@H](c2ncc(-c3cn(C([2H])([2H])[2H])cn3)s2)NS1(=O)=O` (relative stereo) [HBV-CSU-337-ISO-II, Cis-N-(3-Chloro-4-fluorophenyl)-2-(methyl-d3)-5-(5-(1-(methyl-d3)-1H-imidazol-4-yl)thiazol-2-yl)-1,2,6-thiadiazinane-3-carboxamide 1,1-dioxide], 1000 to 5000 nM; with `CN1[C@H](C(=O)Nc2ccc(F)c(Cl)c2)C[C@H](c2ccc(-c3cn(C)cn3)s2)NS1(=O)=O` [HBV-CSU-266-ISO-I, (3S,5R)-N-(3-chloro-4-fluorophenyl)-2-methyl-5-(5-(1-methyl-1H-imidazol-4-yl)thiophen-2-yl)-1,2,6-thiadiazinane-3-carboxamide 1,1-dioxide], less than 1000 nM.
As to `CN(C)CCN1C(C(=O)Nc2ccc(F)c(Cl)c2)CC(c2nccs2)NS1(=O)=O` (racemic) [HBV-CSU-074, Cis-N-(3-Chloro-4-fluorophenyl)-2-(2-(dimethylamino)ethyl)-5-(thiazol-2-yl)-1,2,6-thiadiazinane-3-carboxamide 1,1-dioxide], the concentration for a half-maximal effect (EC50) was more than 5000 nM.
With `[2H]C([2H])([2H])N1C(C(=O)Nc2ccc(F)c(Cl)c2)CC(c2ccc(Br)s2)NS1(=O)=O` (racemic) [HBV-CSU-370, Cis-5-(5-bromothiophen-2-yl)-N-(3-chloro-4-fluorophenyl)-2-(methyl-d3)-1,2,6-thiadiazinane-3-carboxamide 1,1-dioxide] the figure was less than 1000 nM; with `CN1[C@@H](C(=O)Nc2ccc(F)c(Cl)c2)C[C@@H](c2ncc(-c3ccnn3C)s2)NS1(=O)=O` [HBV-CSU-281-ISO-II, Cis-N-(3-Chloro-4-fluorophenyl)-2-methyl-5-(5-(1-methyl-1H-pyrazol-5-yl)thiazol-2-yl)-1,2,6-thiadiazinane-3-carboxamide 1,1-dioxide], 1000 to 5000 nM.
As for `CN1[C@H](C(=O)Nc2cc(Br)cc(Br)c2)C[C@H](c2cccs2)NS1(=O)=O` [HBV-CSU-048-ISO-I, Cis-N-(3,5-Dibromophenyl)-2-methyl-5-(thiophen-2-yl)-1,2,6-thiadiazinane-3-carboxamide 1,1-dioxide], the EC50 was less than 1000 nM.
Next, `CN1[C@H](C(=O)Nc2ccc(F)c(Cl)c2)C[C@@H](c2ccc(-c3cnn(C)c3)s2)NS1(=O)=O` (racemic) [HBV-CSU-161-Trans (Rac), Trans-N-(3-chloro-4-fluorophenyl)-2-methyl-5-(5-(1-methyl-1H-pyrazol-4-yl)thiophen-2-yl)-1,2,6-thiadiazinane-3-carboxamide 1,1-dioxide]: 1000 to 5000 nM; `COCCN1[C@H](C(=O)Nc2ccc(F)c(Cl)c2)C[C@H](c2cccs2)NS1(=O)=O` [HBV-CSU-025-ISO-II, Cis-N-(3-chloro-4-fluorophenyl)-2-(2-methoxyethyl)-5-(thiophen-2-yl)-1,2,6-thiadiazinane-3-carboxamide 1,1-dioxide]: less than 1000 nM.
With `O=C(Nc1ccc(F)c(Cl)c1)[C@H]1C[C@@H](c2nccs2)NS(=O)(=O)N1` [HBV-CSU-096-ISO-I, Cis-N-(3-Chloro-4-fluorophenyl)-5-(thiazol-2-yl)-1,2,6-thiadiazinane-3-carboxamide 1,1-dioxide] the figure was more than 5000 nM; with `CS(=O)(=O)CCN1C(C(=O)Nc2ccc(F)c(Cl)c2)CC(c2nccs2)NS1(=O)=O` (racemic) [HBV-CSU-073, Cis-N-(3-Chloro-4-fluorophenyl)-2-(2-(methylsulfonyl)ethyl)-5-(thiazol-2-yl)-1,2,6-thiadiazinane-3-carboxamide 1,1-dioxide], more than 5000 nM; with `CN1[C@H](C(=O)Nc2ccc(F)c(Cl)c2)C[C@H](c2cc(-c3cnn(C(F)(F)F)c3)cs2)NS1(=O)=O` [HBV-CSU-325-ISO-I, Cis-N-(3-Chloro-4-fluorophenyl)-2-methyl-5-(4-(1-(trifluoromethyl)-1H-pyrazol-4-yl)thiophen-2-yl)-1,2,6-thiadiazinane-3-carboxamide 1,1-dioxide], less than 1000 nM.
With `CN1[C@H](C(=O)Nc2ccc(F)c(Cl)c2)C[C@H](c2ccc(F)s2)NS1(=O)=O` [HBV-CSU-029-ISO-I, Cis-N-(3-chloro-4-fluorophenyl)-5-(5-fluorothiophen-2-yl)-2-methyl-1,2,6-thiadiazinane-3-carboxamide 1,1-dioxide] the figure was less than 1000 nM; with `CN1C(C(=O)Nc2ccc(F)c(Cl)c2)CC(c2ccc(C#N)c(F)c2)NS1(=O)=O` (racemic) [HBV-CSU-221, Cis-N-(3-chloro-4-fluorophenyl)-5-(4-cyano-3-fluorophenyl)-2-methyl-1,2,6-thiadiazinane-3-carboxamide 1,1-dioxide], less than 1000 nM.
For `[2H]C([2H])([2H])N1[C@H](C(=O)Nc2ccc(F)c(Cl)c2)C[C@H](c2ccc(-c3cn(C([2H])([2H])[2H])cn3)s2)NS1(=O)=O` (stereo in doubt) [HBV-CSU-374-ISO-I, Cis-N-(3-Chloro-4-fluorophenyl)-2-(methyl-d3)-5-(5-(1-(methyl-d3)-1H-imidazol-4-yl)thiophen-2-yl)-1,2,6-thiadiazinane-3-carboxamide 1,1-dioxide], the concentration for a half-maximal effect (EC50) is less than 1000 nM.
In the case of `CN1[C@@H](C(=O)Nc2ccc(F)c(Cl)c2)C[C@@H](c2ccsn2)NS1(=O)=O` (relative stereo) [HBV-CSU-056-ISO-II, Cis-N-(3-chloro-4-fluorophenyl)-5-(isothiazol-3-yl)-2-methyl-1,2,6-thiadiazinane-3-carboxamide 1,1-dioxide], the EC50 is more than 5000 nM.
Next, `[2H]C([2H])([2H])N1[C@H](C(=O)Nc2ccc(F)c(Cl)c2)C[C@H](c2ccc(Br)s2)NS1(=O)=O` [HBV-CSU-370-ISO-I, Cis-5-(5-bromothiophen-2-yl)-N-(3-chloro-4-fluorophenyl)-2-(methyl-d3)-1,2,6-thiadiazinane-3-carboxamide 1,1-dioxide]: less than 1000 nM.
